Target: T1, mouse EP2 receptor (Mus musculus, UniProt Q62053)
T1 construct: expressed in transfected cells; host or cells: CHO cells (membrane fraction)
Assay: Receptor-binding experiment (3H-PGE2 displacement) using membranes of CHO cells expressing prostanoid receptor sub-type EP2
Conditions: inhibition of 3H-PGE2 (2.5 nM) binding, CHO cell membrane fraction, room temperature 1 hour, pH 6.0; Ki=IC50/(1+([C]/Kd))
Experimental: (i) Experiment for Receptor-Binding Using Cells Which Express Prostanoid Receptor Sub-Types
According to the method of Sugimoto et al. (J. Biol. Chem., 267, 6463-6466 (1992)), CHO cells which expressed prostanoid receptor sub-types (murine EP1, EP2, EP3α, and EP4, respectively) were prepared and used as membrane authentic samples.
A reaction solution (200 μl) containing the prepared membrane fraction (0.5 mg/ml) and ^3H-PGE2 was incubated at room temperature for 1 hour. The reaction was terminated with ice cold buffer (3 ml), and the reaction mixture was filtered under suction through a glass filter (GF/B), on which the binding ^3H-PGE2 was trapped, and the binding radioactivity was measured by means of a liquid scintillator.
The Kd value was obtained from the Scatchard plots [Ann. N.Y. Acad. Sci., 51, 660 (1949)]. Non-specific binding was obtained as the binding in the presence of an excess amount (2.5 μM) of unlabelled PGE2. Measurement of the binding inhibition for ^3H-PGE2 with the compounds of the present invention was performed by adding ^3H-PGE2 (2.5 nM) and a series of concentrations of the compound of the present invention. In this reaction, the following buffer was used in all cases. • Buffer: 10 mM potassium phosphate (pH 6.0), 1 mM EDTA, 10 mM MgCl2, and 0.1M NaCl.
Dissociation constant Ki (μM) of each compound was calculated from the following equation. […]

T1 sequence (Q62053 whole entry): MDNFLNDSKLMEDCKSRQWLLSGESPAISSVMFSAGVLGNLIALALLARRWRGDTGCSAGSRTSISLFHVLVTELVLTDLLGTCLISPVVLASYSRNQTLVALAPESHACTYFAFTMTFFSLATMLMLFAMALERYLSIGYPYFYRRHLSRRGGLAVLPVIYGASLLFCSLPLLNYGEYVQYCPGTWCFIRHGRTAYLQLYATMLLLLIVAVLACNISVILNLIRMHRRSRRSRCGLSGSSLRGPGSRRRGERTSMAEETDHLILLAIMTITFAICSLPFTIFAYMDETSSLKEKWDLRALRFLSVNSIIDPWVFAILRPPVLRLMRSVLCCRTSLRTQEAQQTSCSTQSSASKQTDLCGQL

## CCCCc1ccc(C2CCC(=O)N2CCSc2nc(C(=O)O)cs2)cc1 (stereo not shown) [Example 4(1), 2-(2-(2-(4-n-butylphenyl)-5-oxopyrrolidin-1-yl)ethylthio)thiazole-4-carboxylic acid]
  Ki: 14 nM
